According to US7842683B2, “Neurotherapeutic compositions and method” (Revaax Pharmaceuticals, LLC, priority 1999, dated 2010):
Like-named read-outs stand apart in the source and are kept apart here.

Assays:
rats = test: Morris water maze, spatial navigation; format: in vivo, rat
From the text: The Morris water maze like the radial arm maze was developed to test spatial memory (Morris, 1984). The pool is divided into quadrants usually designated North, South, East and West. The water in the pool is made opaque with milk powder. Hidden just beneath the surface in one of the quadrants is a platform that serves as a escape route for rodents placed into the pool. An animal is placed some where in the pool from a variety of different start points and is timed for latency to find the platform, percent time spent in each quadrant, distance traveled and swimming speed. The animals has no visual or spatial cues in the pool and must rely on extra-maze cues, i.e., objects set up outside the pool that can be seen by the swimming animal. Through a series of trials a rat develops “place learning” or knowledge about the position of the platform based upon the extra-maze cues. The platform can be moved to a different quadrant each day combining spatial memory with working memory. This paradigm involves extinction of the prior memory and resolution of a new spatial problem.
The water maze consisted of a black plastic circular pool ca. 150 cm in diameter and 54 cm in height filled to a level of 35 cm with water made opaque with powdered milk. The pool was divided into four quadrants with a platform 10 cm in diameter submerged 2 cm below the surface in the northwest quadrant. The water was maintained at a temperature of 25° C. Around the pool were several visual cues. Above the pool was a video camera for tracking the movement of the experimental animal. The data collection was completely automated using the software developed by HVS Image (Hampton, UK). Before testing, rats were familiarized with the pool and platform placed in the northwest quadrant. Each day for 4 consecutive days, animals were placed into pool at random sites and given two min to find the platform. Animals were treated one hr before testing with 50 μg/kg Mox (n=11) or vehicle (n=10). Following these familiarization trials, animals were tested for spatial navigation. The first day of testing began with the platform in the expected northwest quadrant. All behavior was videotaped for a two min observation period. After testing the animal were dried off and placed back into their home cage. On each subsequent day the platform was moved to a new quadrant and the rat started at different positions. The rat was always placed into the pool facing the side wall. The start positions relative to the platform were different for each of the four trials; however, the platform was always in the same relative position in each quadrant. Twenty cm in from the side of the pool and in the left corner from the center facing out.
The Morris water maze was developed to test spatial memory (Morris, 1984). The pool is divided into quadrants usually designated North, South, East and West. The water in the pool is made opaque with milk powder. Hidden just beneath the surface in one of the quadrants is a platform that serves as a escape route for rodents placed into the pool. An animal is placed some where in the pool from a variety of different start points and is timed for latency to find the platform, percent time spent in each quadrant, distance traveled and swimming speed. The animals have no visual or spatial cues in the pool and must rely on extra-maze cues, i.e., objects set up outside the pool that can be seen by the swimming animal. Through a series of trials a rat develops “place learning” or knowledge about the position of the platform based upon the extra-maze cues. The platform can be moved to a different quadrant each day combining spatial memory with working memory. This paradigm involves extinction of the prior memory and resolution of a new spatial problem.
The water maze consisted of a black plastic circular pool ca. 150 cm in diameter and 54 cm in height filled to a level of 35 cm with water made opaque with powdered milk. […]

[1] = in vivo, cited from earlier work
[2] = Estimated fluid and brain concentrations after dosing hamsters; format: in vivo, hamster
Procedure: The adult male hamsters used in these studies weighed around 125 g. […] CLAV has a volume of distribution approximating the extracellular fluid volume. The extracellular water content of lean body mass is approximately 22%.
To this end, animals were treated with N-acetyl-beta-aspartyl-glutamic acid (beta-NAAG), a competitive inhibitor of NAALADase (Serval et al., 1992) and tested in the seed finding model of anxiety. The study was similar to that outlined in Section I with one notable exception. […] Beta-NAAG (FW 304) was given in a dose of 3 ng in a volume of 1 μl saline ICV. The average adult hamster brain weights ca. 1.2 g of which 22% is extracellular fluid.

[3] = 140 g hamster, IP injection of 14 μg

| SMILES | percentage of time spent in each quadrant (rats; CLAV 1.0 μg/kg) | swim rate (rats; CLAV 1.0 μg/kg) | latency to find the platform, main effect (rats; CLAV 1.0 μg/kg one hr before testing) | path length to find the platform (rats; CLAV 1.0 μg/kg, Day 1) | time spent in the correct (South) quadrant (rats; CLAV 1.0 μg/kg, Day 2) | latency to find the platform (rats; CLAV 1.0 μg/kg, Days 1 and 4, trend towards significance) | blood-brain barrier transport / CNS penetrability [1] | blood-brain barrier transport / CNS penetrability ([1]; listed as Clavulanate) | estimated concentration in extracellular water ([2]; CLAV 1.25 ng in 27.5 ml of water (10 ng/kg, 125 g hamster)) [ng/mL] | estimated concentration in the brain ([2]; CLAV 10 ng/kg, CSF/plasma ratio 0.25) | estimated concentration in extracellular water (molar) ([2]; CLAV 10 ng/kg, formula weight ca. 240) | distance covered to reach the platform (rats; Mox 50 μg/kg) | percentage of time spent in each quadrant (rats; Mox 50 μg/kg) | swim speed (rats; Mox 50 μg/kg) | latency to find the hidden platform (rats; Mox 50 μg/kg one hr before testing, days two, three and four) | swim speed relative to vehicle (rats; Mox 50 μg/kg, Day 2) | blood-brain barrier transport / CNS penetrability ([1]; listed as Moxalactam) | estimated CSF concentration [2, 3] [ng/mL] | estimated serum concentration [2, 3] [ng/mL] | estimated (effective minimum) concentration of moxalactam in the brain ([2]; following 50 μg/kg, listed as moxalactam) |
| --- | --- | --- | --- | --- | --- | --- | --- | --- | --- | --- | --- | --- | --- | --- | --- | --- | --- | --- | --- | --- |
| O=C(O)[C@H]1/C(=C/CO)O[C@@H]2CC(=O)N21 [CLAV, Clavulanic acid] | no significant difference between treatments | no significant difference | no main effect for drug treatment | much shorter distance | over 50% | shorter latencies | readily passes the blood-brain barrier | good blood brain barrier transport | 0.045 | around 50 μM | about 200 μM |  |  |  |  |  |  |  |  |  |
| CO[C@@]1(NC(=O)C(C(=O)O)c2ccc(O)cc2)C(=O)N2C(C(=O)O)=C(CSc3nnnn3C)CO[C@@H]21 (stereo partly drawn) [Mox, 7-β-[2-carboxy-2-(4-hydroxyphenyl)acetamido]-7α-methoxy-3-[[(1-methyl-1H-tetrazol-5-yl)thio]methyl]-1-oxa-1-dethia-3-cephem-4-carboxylic acid] |  |  |  |  |  |  | greatest penetrability into the CNS |  |  |  |  | not significantly different | no significant difference between treatments | significantly greater swim speed | significantly shorter latencies | almost twice the speed | can penetrate the blood brain barrier | 15 | 0.1 | about 30 nM |
